Experimental data from patent publication US20260092315A1, “COMPOSITIONS AND METHODS FOR DISCOVERING GENE REGULATION” (UNIVERSITY OF UTAH RESEARCH FOUNDATION, priority 2022, published 2026).

Legend:
MYC protein = MYC protein level by immunoblot in K562 cells treated with JQ1; assay type: cell-based; conditions: 1 uM JQ1 for 6 h
Method: (§1) FIGS. 4A-4C show TRoUT-FISH identifies MYC and BRD4 as regulators of glycolysis. FIG. 4A) TRoUT-FISH data from ENO1 and PGK1 screens. B,C) K562 cells were treated with 1 uM JQ1 for 6 h. FIG. 4B) MYC protein level measured by immunoblot and FIG. 4C) transcripts measured by qPCR. **p<0.01, ****p<0.0001 T-test.
(§2) First, TRoUT-FISH experiments were performed assaying the regulation of ENO1 and PGK1 in K562 cells (FIG. 4A). […] MYC is a well-characterized activator of glycolytic gene expression, and as such served as an internal positive control. BRD4 is a member of the bromodomain and extraterminal domain (BET) family of proteins and is known to regulate MYC at the transcript level.

PGK1 transcript = PGK1 transcript by qPCR in K562 cells treated with JQ1; assay type: cell-based; conditions: 1 uM JQ1 for 6 h
Method: as §1, §2

MYC transcript = MYC transcript by qPCR in K562 cells treated with JQ1; assay type: cell-based; conditions: 1 uM JQ1 for 6 h
Method: as §1, §2

ERRFI1 = conditions: HCT116 cells treated with JQ1, reprocessed RNA-seq data; cited from earlier work
ENO1 transcript = ENO1 transcript by qPCR in K562 cells treated with JQ1; assay type: cell-based; conditions: 1 uM JQ1 for 6 h
Method: as §1, §2

CDKN1A RNA = experiment: MACAREL-FISH barcode recovery with CDKN1A as target RNA; assay type: cell-based; conditions: vehicle versus Nutlin-3a barcoded cells, FACS sorted
Text: FIG. 11A-C show Method to Associate Compounds with Altered RNA levels via Fluorescent In Situ Hybridization (MACAREL-FISH). FIG. 11A) Schematic of MACAREL-FISH. FIG. 11B) Schematic of sorting strategy. Magenta boxes indicate the sorted population. Low and high populations were sorted from the Mix 50:50 population.
In brief, cells are arrayed in a 96 well plate (FIG. 11A). MACAREL-FISH is amenable to any cell type including: immortalized cancer cell lines, primary cells, patient cells, and organoids. Each well is incubated with a specific compound. Before, during, or after treatment cells are barcoded (FIG. 11A). Cells are then detached from the plate and fixed with paraformaldehyde (PFA) which locks cells in their current state. Cells are then pooled permeabilized and stained with a DNA dye and incubated overnight in hybridization buffer in the presence of specific DNA oligonucleotides that anneal to an RNA of interest. The DNA oligonucleotides are computationally designed genome-wide to ensure specificity for the elucidator. […] Based on the possible sequence space of barcodes and read length on NGS, this approach can be scaled almost ad infinitum.
Cells were treated with either vehicle control or the small molecule Nutlin-3a. […] After sorting, DNA was extracted and barcodes identity and abundance were measured by sequencing.

CDKN1A mRNA = experiment: FISH coupled with flow cytometry for CDKN1A mRNA in HCT116 cells; assay type: cell-based
Method: (§3) FIGS. 3A-3D show TRoUT-FISH positively identifies known mechanisms of gene regulation. Treatment with Nutlin-3a FIG. 3A) stabilizes p53 protein and FIG. 3B) induces CDKN1A transcription. FIG. 3C) FISH and flow cytometry detects drug induced changes in CDKN1A mRNA levels. FIG. 3D) MAGeCK analysis of Nutlin-3a TRoUT-FISH with CDKN1A as the elucidator. ****p<0.0001 T-test.
TRoUT-FISH is performed on bulk populations which sidesteps the cost and data sparsity issues common to single cell RNA-seq assays. As TRoUT-FISH experiments are performed without any genetic manipulations prior to CRISPR perturbations, the system is ideally positioned to integrate with other data, including ChIP-seq, ATAC-seq, and ENCODE resources. These other resources provide complementary mechanistic insight of gene regulation. Cells are infected at low MOI with virus encoding a CRISPR library selected based on antibiotic resistance. Cells are cultured for eight days to allow CRISPR editing to occur. […]
The small molecule Nutlin-3a, which inhibits the interaction between MDM2 and p53 and, in doing so, prevents the proteolytic degradation of p53 and permits activation of downstream targets such as CDKN1A, has been used. […] After acute selection, cells were treated with vehicle or Nutlin-3a and the transcript abundance of CDKN1A was determined by FISH. […]

p53 protein = p53 protein level after Nutlin-3a treatment of HCT116 cells; assay type: cell-based; conditions: HCT116 cells (wildtype for TP53)
Text: as §3
(§4) The small molecule Nutlin-3a, which inhibits the interaction between MDM2 and p53 and, in doing so, prevents the proteolytic degradation of p53 and permits activation of downstream targets such as CDKN1A, has been used. […] These changes were then assayed using FISH coupled with flow cytometry (FIG. 2). […] A CRISPR screen was performed in HCT116 cells stably expressing Cas9 with a small library targeting ˜1500 transcription factors, including ten sgRNAs against TP53. After acute selection, cells were treated with vehicle or Nutlin-3a and the transcript abundance of CDKN1A was determined by FISH. CDKN1Alow and CDKN1A high populations were sorted by flow cytometry (e.g. FACS), isolated genomic DNA, and sequenced sgRNAs (FIG. 2). This screen positively identified TP53 as the critical mediator of Nutlin-3a induced CDKN1A expression ([…]).

CDKN1A transcript = CDKN1A transcript after Nutlin-3a treatment of HCT116 cells; assay type: cell-based; conditions: HCT116 cells (wildtype for TP53)
Text: as §3, §4

Cc1sc2c(c1C)C(c1ccc(Cl)cc1)=N[C@@H](CC(=O)OC(C)(C)C)c1nnc(C)n1-2 [JQ1]
MYC protein level (MYC protein): significantly downregulated | PGK1 transcript level (PGK1 transcript): significantly downregulated | MYC transcript level (MYC transcript): significantly downregulated | ERRFI1 levels (ERRFI1): reduction in ERRFI1 levels | ENO1 transcript level (ENO1 transcript): significantly downregulated

COc1ccc(C2=N[C@@H](c3ccc(Cl)cc3)[C@@H](c3ccc(Cl)cc3)N2C(=O)N2CCNC(=O)C2)c(OC(C)C)c1 [Nutlin-3a]
Effect on CDKN1A RNA abundance (barcode recovery from sorted populations) (CDKN1A RNA): activator of CDKN1A RNA abundance | CDKN1A FISH fluorescence by flow cytometry (CDKN1A mRNA; HCT116 cells, versus control and inactive enantiomer): higher fluorescence than either the control or inactive enantiomer | CDKN1A FISH signal upon treatment (CDKN1A mRNA; stable TP53 knockout lines): no induction of CDKN1A signal | p53 protein level (p53 protein): stabilization of p53 protein | CDKN1A transcript level (CDKN1A transcript): induction of CDKN1A transcript
